We go through three compounds from US20070037799A1, “Fungicide ternary active ingredient combinations” (Bayer Cropscience Aktiengesellschaft, priority 2003, published 2007).

The test system of the test is Erysiphe graminis f. sp. Tritici. As to the kind of experiment: Erysiphe test (wheat)/curative. The test is classed as in vivo, Erysiphe graminis f. sp. Tritici on wheat. Particulars: curative, sprayed 48 hours after inoculation, application rate 50 g/ha of each active compound, evaluation 8 days after inoculation, 0% = control, 100% = no infection. As to the method:
The efficacy here is determined in %. 0% denotes an efficacy which corresponds to that of the control, while an efficacy of 100% means that no infection is observed.
To produce a suitable preparation of active compound, 1 part by weight of active compound or active compound combination is mixed with the stated amounts of solvent and emulsifier, and the concentrate is diluted with water to the desired concentration.
To test for curative activity, young plants are dusted with spores of Erysiphe graminis f. sp. Tritici. 48 hours after the inoculation, the plants are sprayed with the preparation of active compound at the stated application rate.
The plants are placed in a greenhouse at a temperature of about 20° C. and a relative atmospheric humidity of about 80% to promote the development of mildew pustules.
Evaluation is carried out 8 days after the inoculation. 0% means an efficacy which corresponds to that of the control, whereas an efficacy of 100% means that no infection is observed.

In the case of `CON=C(C1=NOCCO1)c1ccccc1Oc1ncnc(Oc2ccccc2Cl)c1F` [(I) fluoxastrobin, 3-[1-[2-(4-<2-chlorophenoxy>-5-fluoropyrimid-6-yloxy)phenyl]-1-(methoximino)methyl]-5,6-dihydro-1,4,2-dioxazine], the “Efficacy in % found (activity found)” value was 11%.
For the compound `OC(Cc1ccccc1Cl)(Cn1nc[nH]c1=S)C1(Cl)CC1` (stereo not drawn) [(II) prothioconazole, prothioconazole], the “Efficacy in % found (activity found)” value came out at 0%.
For `CC(C)(C)C(O)(CCc1ccc(Cl)cc1)Cn1cncn1` (stereo not drawn) [(III) tebucinazole, tebucinazole], the “Efficacy in % found (activity found)” value was 22%.
